Columns and labels:
[1] = test system: β-D-glucuronidase from Helix Pommatia type HP-2; test: Quick test for enzyme recognition of GUS substrates; type: biochemical
Protocol: Dibutyl GUS substrate (compound 27) was tested. First a solution of 2 mg of product (compound 27) in 2 ml pH 8 buffer solution (Merck Titrisol 9888) was made. 1 ml of this solution was kept aside, to the other 1 ml solution 5 μl (500 UNITS) β-D-glucuronidase from Helix Pommatia type HP-2 (Sigma G7017) was added. […] The plate was developed using isooctane/acetone 60:40.

[2] = test system: GUS transfected 293T cells; test: Enzymatic test in mammalian cells electroporated with pLNCGUS; type: cell-based; settings: 10 μg/ml
Protocol: FIG. 3. Fluorescent (=GUS transfected) and non-fluorescent 293T cells with the presence of compound 27.
Cells were electroporated in the presence of 10 μg pLNCGUS and after 24 hours, compound 27 (10 mM stock in DMSO) was added to a final concentration of 10 μg/ml. Less than 5% of the cells had taken up the pLNCGUS plasmid.

[3] = test system: GUS reporter enzyme in hair-root cells of a transgenic tobacco plant; test: Testing substrate in vivo, confocal microscopy of hair-root cells; type: cell-based; settings: cells not permeabilized
Excerpt: FIG. 1. Testing substrate (compound 27) in vivo.

Structure (SMILES) | reaction in GUS substrate test ([1]; after 30 minutes) | fluorescence of cells in the presence of substrate ([2]; 293T cells electroporated with 10 μg pLNCGUS, substrate added after 24 hours) | fluorescence of cells in the presence of substrate ([2]; cells electroporated in the absence of pLNCGUS) | detection of GUS reporter enzyme in the cell nucleus [3] | fluorescent spot on TLC plate after incubation with GUS enzyme (conversion of non-fluorescent substrate into fluorescent product) ([1]; 2 mg in 2 ml pH 8 buffer, 500 UNITS enzyme per 1 ml, 15 minutes shaking at room temperature)
CCCCCc1ccc(O[C@@H]2O[C@H](C(=O)O)[C@@H](O)[C@H](O)[C@H]2O)c(-c2nc3ccc(CCCCC)cc3c(=O)[nH]2)c1 [compound 24, 1-O-(2-(4-oxo-6-n-pentyl-3H-quinazolinyl)-4-n-pentylphenyl)-β-D-glucuronic acid] | clear positive reaction | – | – | – | –
CCCCc1ccc(O[C@@H]2OC(C(=O)O)[C@@H](O)[C@@H](O)C2O)c(-c2nc3ccc(CCCC)cc3c(=O)[nH]2)c1 (some centres unmarked) [compound 27] | – | Fluorescent | weak background fluorescence | can be shown with lipophilic GUS substrate (compound 27) without permeabilizing cells | clear fluorescent spot
